Measurements taken from patent publication US12161116B1, “Ethyl-2-{[(2,4-dichlorobenzoyl carbamothioyl]amino}-4,5,6,7-tetrahydro-1-benzothiophene-3-carboxylate as an eco-friendly insecticidal agent against Spodoptera littoralis (boisd.)” (priority 2023, dated 2024).
Values after ≈ are worked out from the molar mass of the structure shown. Like-named read-outs stand apart in the source and are kept apart here.

System: Spodoptera littoralis
Assay: Insecticidal bioassay screening (castor leaf dip) on second and fourth instar larvae
Format: in vivo
Details: for Toxicity index %: 72 hrs, Diflubenzuron's LC50 / the compound's LC50 × 100; for LC90 (mg/L) at 95%: after 72 hrs of treatment, treated castor leaves; for LC50: Spodoptera littoralis, in Gossypium hirsutum, foliar, 72 h
Procedure: Five concentrations (200, 100, 50, 25, 12.5 ppm) were designed for this synthetic compound and the reference Diflubenzuron compound as the dynamic ingredients based on mg/L via diluting the commercial formulation.
In this experiment, castor leaves are immersed in each of the previously prepared concentrations of the components for 10 seconds and then left to dry for 60 minutes. Larvae of the second and fourth instars of each checked strain are prepared with treated leaves in gauze-covered glass containers for 72 hrs. An untreated control is made in which leaves are dipped in triton x-100 and distilled water only. Then the preserved leaves were removed & fresh, untreated leaves were provided for 72 hours. Three replicates (10 larvae each) were checked for each concentration. Daily inspection was carried out for all treatments and mortality percentages were recorded 3 days (72 hours) after treatment. The average mortality percentage was corrected employing Abbott's formula. The corrected mortality rate for each of the previously synthesized compounds is statistically calculated according to Finney (1970). Through this rate, the corresponding concentration test lines (LDP lines) are assessed.

[1] = read-out: LC50 (mg/L) at 95%, 2nd instar larvae, after 72 hrs of treatment, treated castor leaves
[2] = read-out: LC50 (mg/L) at 95%, 4th instar larvae, after 72 hrs of treatment, treated castor leaves

Structure (SMILES)	Toxicity index % (2nd instar larvae) [%]	LC90 (mg/L) at 95% (2nd instar larvae) [mg/L]	Toxicity index % (4th instar larvae) [%]	LC90 (mg/L) at 95% (4th instar larvae) [mg/L]	LC50 [1] [mg/L]	LC50 [2] [mg/L]
O=C(NC(=O)c1c(F)cccc1F)Nc1ccc(Cl)cc1 [Diflubenzuron]	100	520.0 (≈ 1670 µM)	100	1540.5 (≈ 4960 µM)	45.2 (≈ 145 µM)	144 (≈ 464 µM)
CCOC(=O)c1c(NC(=S)NC(=O)c2ccc(Cl)cc2Cl)sc2c1CCCC2 [Ethyl-2-{[(2,4-dichlorobenzoyl)carbamothioyl]amino}-4,5,6,7-tetrahydro-1-benzothiophene-3-carboxylate]					~270 (≈ 591 µM)	~631 (≈ 1380 µM)
